Consider eleven compounds from ChEMBL document CHEMBL5126605, “Nucleic-Acid-Based Targeted Degradation in Drug Discovery” (J Med Chem, 2022).

The target of assay [1] is T1, Huntingtin (Homo sapiens, UniProt P42858). In words: Inhibition of HTT (unknown origin).
Assay [2] relates to MDA-MB-231. In words: Potency index, ratio of RIBOTAC activity of test compound to RIBOTAC activity of Dovitinib at Pre-miR-21 RNA/RNase L in human MDA-MB-231 cells assessed as decrease in mature miR-21 levels by RT-qPCR analysis. The class given is cell-based. In general terms: In qPCR the cycle at which signal appears reflects the starting amount.
Assay [3] has as its system MDA-MB-231. In words: RIBOTAC activity at Pre-miR-21 RNA/RNase L in human MDA-MB-231 cells assessed as decrease in mature miR-21 levels at 0.2 uM by RT-qPCR analysis. It counts as cell-based. Also noted: scale not given: the % may be the effect or the level left.
Assay [4] has as its system MDA-MB-231. Kind of assay: RIBOTAC activity at Pre-miR-21 RNA/RNase L in human MDA-MB-231 cells assessed as decrease in mature miR-21 levels at 5 uM by RT-qPCR analysis. It counts as cell-based. Also noted: scale not given: the % may be the effect or the level left.
In assay [5] the target is T1, Huntingtin. In words: Induction of human HTT degradation in human SH-SY5Y cells assessed as decrease in HTT-transcript levels at 125 nM. It counts as cell-based. Also noted: scale not given: the % may be the effect or the level left.
In assay [6] the target is T1, Huntingtin. In words: Induction of human HTT degradation in human SH-SY5Y cells assessed as decrease in normal HTT protein levels at 125 nM by Western blot analysis. It counts as cell-based. Also noted: scale not given: the % may be the effect or the level left. (In general: In western blotting, separated proteins are transferred to a membrane and probed.)
Assay [7] concerns the target T2, von Hippel-Lindau disease tumor suppressor/Bromodomain-containing protein 4 (Homo sapiens, UniProt O60885+P40337). In words: PROTAC activity at VHL/BRD4 in human MCF7 cells assessed as BRD4 degradation by measuring maximum efficacy at 50 nM measured after 24 hrs by Western blot analysis relative to control. The class given is cell-based.
In assay [8] the test system is MCF7. In words: Antitumor activity human MCF7 cells xenografted in nude mouse assessed as tumor growth inhibition at 10 mg/kg, iv administered every other day for 21 days. It counts as functional. Particulars: MCF7, 504 h, time 21 day, read-out: TGI. (A xenograft is tissue or cells of one species grown in another, often human tumour cells in immunodeficient mice.)

In assay [9] the target is T2, von Hippel-Lindau disease tumor suppressor/Bromodomain-containing protein 4. Kind of assay: PROTAC activity at VHL/BRD4 in human MCF7 cells assessed as BRD4 degradation measured after 24 hrs by Western blot analysis. It counts as cell-based.
Assay [10] can be described thus: Binding affinity to Cy5-labeled SARS-CoV-2 Attenuator hairpin RNA incubated for 20 mins by microscale thermophoresis analysis. Also noted: species or system Severe acute respiratory syndrome coronavirus 2.
The nature of assay [11]: Selectivity index, ratio of Kd for binding affinity to 5' Cy5-labeled microRNA-210 hairpin precursor (unknown origin) to Kd for binding affinity to 5' Cy5 end-labeled DNA hairpin (unknown origin) incubated for 30 mins in the presence of RNase L by microscale thermophoresis analysis.
A short description of assay [12]: Binding affinity to 5' Cy5-labeled Pre-miR-210 RNA (unknown origin) incubated for 30 mins in the presence of RNase L by microscale thermophoresis analysis.
Assay [13] can be described thus: Binding affinity to 5' Cy5 end-labeled DNA hairpin (unknown origin) incubated for 30 mins in the presence of RNase L by microscale thermophoresis analysis.
A short description of assay [14]: RIBOTAC activity at Pre-miR-21 RNA/RNase L in human MDA-MB-231 cells assessed as decrease in mature miR-21 levels by RT-qPCR analysis. The class given is cell-based.

A value given as a limit tells only on which side of the number the result lay.

T1 sequence (P42858 whole entry): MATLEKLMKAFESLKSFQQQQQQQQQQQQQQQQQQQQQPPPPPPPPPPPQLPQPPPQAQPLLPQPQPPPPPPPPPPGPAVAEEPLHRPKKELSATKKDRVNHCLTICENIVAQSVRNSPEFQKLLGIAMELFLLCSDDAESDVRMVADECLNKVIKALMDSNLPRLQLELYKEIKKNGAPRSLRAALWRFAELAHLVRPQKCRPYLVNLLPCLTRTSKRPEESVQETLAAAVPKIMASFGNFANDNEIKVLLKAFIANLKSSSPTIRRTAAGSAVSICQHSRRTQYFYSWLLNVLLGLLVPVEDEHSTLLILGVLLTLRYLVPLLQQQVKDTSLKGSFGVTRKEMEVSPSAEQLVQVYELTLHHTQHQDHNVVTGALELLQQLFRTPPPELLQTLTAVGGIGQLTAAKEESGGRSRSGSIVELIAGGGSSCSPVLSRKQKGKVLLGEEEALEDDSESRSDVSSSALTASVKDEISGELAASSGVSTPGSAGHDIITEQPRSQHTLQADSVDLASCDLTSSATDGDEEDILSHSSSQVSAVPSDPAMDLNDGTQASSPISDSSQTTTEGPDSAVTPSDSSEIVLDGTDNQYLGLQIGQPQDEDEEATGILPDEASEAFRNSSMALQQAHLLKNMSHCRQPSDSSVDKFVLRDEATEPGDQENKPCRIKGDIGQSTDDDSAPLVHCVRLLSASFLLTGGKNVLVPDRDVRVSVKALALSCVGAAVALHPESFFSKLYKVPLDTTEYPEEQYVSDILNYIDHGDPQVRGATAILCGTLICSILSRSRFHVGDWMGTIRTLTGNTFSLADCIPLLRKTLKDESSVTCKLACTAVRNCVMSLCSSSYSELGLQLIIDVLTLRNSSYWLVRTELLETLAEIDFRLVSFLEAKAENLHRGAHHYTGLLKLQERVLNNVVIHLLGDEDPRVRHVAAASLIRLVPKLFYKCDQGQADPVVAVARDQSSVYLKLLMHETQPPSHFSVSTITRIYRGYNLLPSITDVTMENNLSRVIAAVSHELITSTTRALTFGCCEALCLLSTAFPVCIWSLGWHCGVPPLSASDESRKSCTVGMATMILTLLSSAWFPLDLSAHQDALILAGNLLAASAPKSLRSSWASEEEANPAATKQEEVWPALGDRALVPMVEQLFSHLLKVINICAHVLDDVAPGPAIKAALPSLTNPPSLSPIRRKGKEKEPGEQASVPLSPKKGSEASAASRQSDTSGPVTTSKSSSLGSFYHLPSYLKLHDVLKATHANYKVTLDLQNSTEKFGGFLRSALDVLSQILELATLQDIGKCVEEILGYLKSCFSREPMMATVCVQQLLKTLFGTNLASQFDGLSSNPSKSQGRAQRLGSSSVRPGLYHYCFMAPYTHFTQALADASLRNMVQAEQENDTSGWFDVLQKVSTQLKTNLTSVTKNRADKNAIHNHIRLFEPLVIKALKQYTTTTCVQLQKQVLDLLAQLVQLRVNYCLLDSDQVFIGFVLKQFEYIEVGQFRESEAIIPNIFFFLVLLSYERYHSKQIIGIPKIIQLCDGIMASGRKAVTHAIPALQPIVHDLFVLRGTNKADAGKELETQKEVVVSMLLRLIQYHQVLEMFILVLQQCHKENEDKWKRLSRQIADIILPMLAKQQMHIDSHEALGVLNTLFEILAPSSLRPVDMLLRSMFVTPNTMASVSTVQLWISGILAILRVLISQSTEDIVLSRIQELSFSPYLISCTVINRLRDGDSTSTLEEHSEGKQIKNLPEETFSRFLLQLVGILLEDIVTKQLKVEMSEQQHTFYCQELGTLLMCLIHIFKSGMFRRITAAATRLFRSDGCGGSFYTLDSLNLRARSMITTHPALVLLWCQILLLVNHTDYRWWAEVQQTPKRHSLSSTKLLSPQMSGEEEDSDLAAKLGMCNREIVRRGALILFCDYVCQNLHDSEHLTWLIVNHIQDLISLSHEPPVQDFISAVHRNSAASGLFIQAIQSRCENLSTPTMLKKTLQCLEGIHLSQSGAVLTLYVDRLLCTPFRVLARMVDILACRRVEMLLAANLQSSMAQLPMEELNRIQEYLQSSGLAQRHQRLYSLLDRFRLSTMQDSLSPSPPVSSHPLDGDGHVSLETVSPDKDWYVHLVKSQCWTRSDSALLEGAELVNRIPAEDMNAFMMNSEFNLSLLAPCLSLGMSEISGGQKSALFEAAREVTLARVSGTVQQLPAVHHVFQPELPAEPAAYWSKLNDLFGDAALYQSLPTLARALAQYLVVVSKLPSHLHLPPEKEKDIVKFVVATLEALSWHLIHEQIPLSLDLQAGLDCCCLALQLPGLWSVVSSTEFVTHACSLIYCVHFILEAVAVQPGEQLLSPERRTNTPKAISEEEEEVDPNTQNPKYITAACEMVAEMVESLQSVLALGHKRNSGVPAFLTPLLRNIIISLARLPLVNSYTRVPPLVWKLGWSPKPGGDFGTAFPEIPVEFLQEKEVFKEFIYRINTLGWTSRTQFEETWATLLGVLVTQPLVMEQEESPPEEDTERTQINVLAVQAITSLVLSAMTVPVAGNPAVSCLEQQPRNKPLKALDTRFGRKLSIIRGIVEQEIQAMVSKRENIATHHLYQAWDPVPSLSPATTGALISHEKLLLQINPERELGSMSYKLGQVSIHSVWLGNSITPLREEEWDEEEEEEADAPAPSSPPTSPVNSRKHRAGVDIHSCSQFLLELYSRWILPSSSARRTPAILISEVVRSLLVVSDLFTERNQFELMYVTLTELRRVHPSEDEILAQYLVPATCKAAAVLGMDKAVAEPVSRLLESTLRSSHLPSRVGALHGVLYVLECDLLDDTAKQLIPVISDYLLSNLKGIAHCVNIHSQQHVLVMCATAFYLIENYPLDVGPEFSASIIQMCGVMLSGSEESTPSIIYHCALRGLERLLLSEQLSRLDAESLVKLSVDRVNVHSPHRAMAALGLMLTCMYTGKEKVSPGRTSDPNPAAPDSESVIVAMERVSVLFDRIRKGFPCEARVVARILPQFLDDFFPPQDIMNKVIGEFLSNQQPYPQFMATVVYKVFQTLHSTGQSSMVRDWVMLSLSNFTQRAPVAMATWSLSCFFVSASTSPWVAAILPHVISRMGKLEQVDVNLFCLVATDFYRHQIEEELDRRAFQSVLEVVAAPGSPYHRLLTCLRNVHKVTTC
T2 sequence (P40337 whole entry, looked up, other chains not shown): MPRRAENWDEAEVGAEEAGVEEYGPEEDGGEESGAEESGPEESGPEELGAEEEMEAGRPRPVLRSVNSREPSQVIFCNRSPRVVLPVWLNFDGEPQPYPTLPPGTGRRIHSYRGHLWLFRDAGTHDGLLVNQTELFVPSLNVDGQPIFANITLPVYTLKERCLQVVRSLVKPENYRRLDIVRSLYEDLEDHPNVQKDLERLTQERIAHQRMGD

Broadly, the IC50 is the concentration at which inhibition is half-maximal. `CCN1CCC(c2cc(C)c3nc(-c4ccc5nn(C)cc5c4)cc(=O)n3c2)CC1`: inhibition in [1] was half-maximal at 80 nM (IC50).

For `CCOC(=O)C1=C(Nc2ccccc2)S/C(=C\c2ccc(OCCOCCOCCOCCNC(=O)NCCN3CCN(c4ccc5nc(-c6c(N)c7c(F)cccc7[nH]c6=O)[nH]c5c4)CC3)c(O)c2)C1=O`, the Ratio in [2] stood at 5. Also, in assay [3], the Activity was found to be 30%.

On to `CN1CCN(c2ccc3nc(-c4c(N)c5c(F)cccc5[nH]c4=O)[nH]c3c2)CC1`, for which the Activity in assay [4] is 30%.

`CCN1CCC(c2cc3c(F)cc(-c4cc(C)c5nc(C)cn5n4)cc3nn2)CC1`: the IC50 in assay [1] is 8 nM.

On to `CC1(C)CC(Oc2ccc(-c3ccc(-c4cn[nH]c4)cc3O)nn2)CC(C)(C)N1`, for which the results for the Activity in assay [5] and in assay [6] were 95% and 53%, respectively.

In general, Emax refers to the size of the effect at its maximum, as opposed to the concentration needed. A word on the EC50: it is the concentration giving half of the maximal effect. As to `Cc1ncsc1-c1ccc([C@H](C)NC(=O)[C@@H]2C[C@@H](O)CN2C(=O)[C@H](NC(=O)COCCOCCOCCNC(=O)C[C@@H]2N=C(c3ccc(Cl)cc3)c3c(sc(C)c3C)-n3c(C)nnc32)C(C)(C)C)cc1`, the Emax in assay [7] is above 90%. Besides, the inhibition in vivo at 10 mg/kg in assay [8] was 59.8%. In assay [9], the EC50 came out at 13 nM.

The Kd is the constant that tells how readily two partners part at equilibrium. In assay [10], `CNc1nc(Nc2cccc(C(=O)O)c2)nc2ccccc12` yielded a Kd of 11 nM.

In turn, `CC1(C)CC(Oc2ccc(-c3ccc(-c4ccnc(O)c4)cc3O)nn2)CC(C)(C)N1` gave an IC50 in assay [1] of 40 nM.

`CN1CCN(c2ccc3nc(-c4ccc5[nH]c(-c6cccc(OCCCC(=O)NCCCN=[N+]=[N-])c6)nc5c4)[nH]c3c2)CC1`: the Ratio in [11] stood at 5. Moreover, the Kd in [12] came to 160 nM; in [13] it was 620 nM.

With `CCCN(CC(=O)N(CCC)CC(=O)N(CCC)CC(=O)N(CC(=O)NCCOCCOCCOCCOc1ccc(/C=C2\SC(Nc3ccccc3)=C(C(=O)OCC)C2=O)cc1O)Cc1cn(CCCNC(=O)CCCOc2ccc(-c3nc4ccc(-c5ccc(N6CCN(C)CC6)cc5)cc4[nH]3)cc2)nn1)C(=O)CN(Cc1cn(CCCNC(=O)CCCOc2ccc(-c3nc4cc(-c5ccc(N6CCN(C)CC6)cc5)ccc4[nH]3)cc2)nn1)C(C)=O`, the half-inhibitory concentration (IC50) in [14] amounted to 50 nM.

As to `CN1CCN(c2ccc3nc(-c4ccc5[nH]c(-c6cccc(OCCCC(=O)NCCCOCC(O)COP(=O)(O)O[C@@H]7[C@H](O)[C@@H](COP(=O)(O)O[C@@H]8[C@H](O)[C@@H](COP(=O)(O)O[C@@H]9[C@H](O)[C@@H](COP(=O)(O)O[C@@H]%10[C@H](O)[C@@H](COP(=O)(O)O)O[C@H]%10n%10cnc%11c(N)ncnc%11%10)O[C@H]9n9cnc%10c(N)ncnc%109)O[C@H]8n8cnc9c(N)ncnc98)O[C@H]7n7cnc8c(N)ncnc87)c6)nc5c4)[nH]c3c2)CC1` (some centres not stated), in assay [12], the Kd came to 340 nM.
